Results published in patent US11208377B2, “3,4-disubstituted 3-cyclobutene-1,2-diones and use thereof” (ALLERGAN, INC., priority 2017, dated 2021).

Biological target: human CCR6 (Homo sapiens (Human), UniProt P51684)
Test: Calcium activity assay on the FLIPR Tetra in HEK-Gqi5 cells stably expressing human CCR6 (MIP3α as positive control agonist)
Type: cell-based
Experimental: HEK-Gqi5 cells stably expressing human CCR6 were cultured in DMEM high glucose, 10% FBS, 1% PSA, 400 ug/ml geneticin and 50 ug/ml hygromycin. Appropriate positive control chemokine (MIP3α) was used as the positive control agonist for screening compound-induced calcium activity assayed on the FLIPR^Tetra. The drug plates were prepared in 384-well microplates using the EP3 and the MultiPROBE robotic liquid handling systems. Compounds disclosed herein were tested for CCR6 activity.

Sequence of human CCR6 (P51684 whole entry): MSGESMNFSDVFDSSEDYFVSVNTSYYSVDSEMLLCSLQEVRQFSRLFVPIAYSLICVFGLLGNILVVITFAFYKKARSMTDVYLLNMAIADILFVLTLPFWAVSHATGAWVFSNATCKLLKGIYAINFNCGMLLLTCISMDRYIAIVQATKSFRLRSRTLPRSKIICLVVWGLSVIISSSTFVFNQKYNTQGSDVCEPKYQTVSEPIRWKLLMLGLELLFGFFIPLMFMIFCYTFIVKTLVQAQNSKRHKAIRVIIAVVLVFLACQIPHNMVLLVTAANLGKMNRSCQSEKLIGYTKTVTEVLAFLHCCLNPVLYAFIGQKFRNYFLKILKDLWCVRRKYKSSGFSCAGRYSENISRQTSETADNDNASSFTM

Row | Structure (SMILES) | CCR6 % Antagonism | IC50
1 | CN1CCN(S(=O)(=O)c2c(Cl)ccc(Nc3c(NC4c5ccoc5CCC4(C)C)c(=O)c3=O)c2O)CC1 (stereo not shown) [Compound 49, 3-((4-chloro-2-hydroxy-3-((4-methylpiperazin-1-yl)sulfonyl)phenyl)amino)-4-((5,5-dimethyl-4,5,6,7-tetrahydrobenzofuran-4-yl)amino)cyclobut-3-ene-1,2-dione] | 98% | 31 nM
2 | CCC(C)(Nc1c(Nc2ccc(Cl)c(C(=O)N(C)C)c2O)c(=O)c1=O)c1ccccc1 (stereo not shown) [Compound 72, 6-chloro-3-((3,4-dioxo-2-((2-phenylbutan-2-yl)amino)cyclobut-1-en-1-yl)amino)-2-hydroxy-N,N-dimethylbenzamide] | 95% | 46 nM
